Reference: paper PMC7391726, “Fatty acid mimetic PBI-4547 restores metabolic homeostasis via GPR84 in mice with non-alcoholic fatty liver disease” (Scientific Reports, 2020)

Legend:
BDL rat = assay: Bile duct ligation (BDL)-induced liver fibrosis; format: in vivo
From the text: Since fibrosis contributes directly to the progression from NAFLD to NASH, we next evaluated the effect of PBI-4547 pro-fibrotic gene expression. […] Pro-inflammatory genes were not modulated by treatment with PBI-4547. […] As liver fibrosis was relatively mild in HFD-fed mice, we performed separate studies to evaluate the antifibrotic effect of PBI-4547, in rodent models of carbon tetrachloride (CCl4)- and bile duct ligation (BDL)-induced liver fibrosis.

HFD-fed WT mice = assay: High-fat diet (HFD) mouse model of obesity/NAFLD, WT mice; format: in vivo
From the text: The well-established high-fat diet (HFD) mouse model of obesity was used to study the impact of PBI-4547 on the onset and progression of NAFLD. A 14-week HFD regimen led to significant weight gain in both male and female mice. […] Moreover, PBI-4547 decreased serum triglycerides while enhancing adiponectin levels. […] Of note, the effects of PBI-4547 on bodyweight, food consumption, glucose tolerance, fasting blood glucose, insulin resistance and HOMA-β indices were absent in standard diet-fed mice (Table S1).
Total cholesterol levels were measured using the HDL/LDL/VLDL Cholesterol Assay kit (Abcam) according to manufacturer’s protocol. […] Liver triglycerides were extracted using a modified version of the Folch protocol[49]^, then quantified using a triglyceride colorimetric kit (Cayman Chemical).
WT or Gpr84^−/− mice, as previously described, (aged 10–14 weeks at the beginning of the experiment) were either fed a standard diet (STD) or a high-fat diet (HFD) (Envigo #TD.06414) for 14 weeks. At this point, mice were administered either vehicle (water) or PBI-4547 (10 mg/kg) on a daily basis for 6 (WT study) or 8 (WT vs KO study) weeks by gastric gavage, and were sacrificed thereafter. Liver and WAT tissues were fixed in 10% formalin for histological analyses or flash frozen in liquid nitrogen for RT-PCR analyses. All animal studies were reviewed and approved by the animal care and use committee of the Institut National de la Recherche Scientifique – Armand-Frappier (Laval, QC, Canada) and the University of Ottawa’s Animal Care and Veterinary Services (Ottawa, ON, Canada). Protocols were approved and undertaken according to the Canadian Council on Animal Care guidelines.
Oral glucose tolerance tests (OGTT) were completed 6 weeks after beginning of the treatments. Briefly, mice were fasted for 4–6 h, given a bolus of glucose at […] BW orally, and blood glucose values measured at 0, 15, 30, 60, 120 min. In parallel, a blood sample was obtained at 0, 15, 60 and 120 min for insulin quantification by ELISA (EMD Millipore).
After fixation in formalin, iWAT (inguinal), eWAT (epididymal) and liver sections were embedded in paraffin. Thin section of […] were stained with Hematoxylin and Eosin or Sirius red for analyses. WAT collagen deposition and liver characteristics of NAFLD were quantified histologically by a pathologist (R.C.) in a double-blinded manner. Liver histology was performed on H&E stained slides. WAT collagen deposition was scored using Picro Sirius-Red stained slides. Immunofluorescence-detection of α-SMA in liver sections was performed. Briefly, samples were deparaffinized in a series of xylenes, rehydrated in graded alcohols followed by an antigen-unmasking step by microwaving in Tris-buffer (pH 8.2). Sections were blocked with 10% donkey serum (Vector labs), 1% bovine serum albumin (Sigma) in PBS + 1%Tween for 1 h at room temperature. Slides were incubated overnight at 4 °C with an anti-mouse smooth muscle α-Actin antibody (1:300; Santa Cruz, clone #1A4). Secondary detection was performed using a donkey anti-mouse Alexa Fluor 594 (1:500; Molecular Probes), incubated for 1 h at room temperature. Slides were dehydrated and mounted with fluorescent antifade media containing DAPI (Vector labs). Images were taken at 100X and 200X magnification and representative images are shown.
RNA was extracted and purified as previously described. Real-time quantitative PCR was performed on a CFX96 Touch Real-Time PCR Detection System (Bio-Rad) using TaqMan gene expression assays (Fisher Scientific). qPCR data were analyzed using the 2-^ΔΔCt method, using Gapdh and Hprt as endogenous control. RT-qPCR data were reported as Geometric means ± SEM.
A portion of hepatic tissue (50 mg) was mechanically homogenized in 1 mL H2O/CH3CN (1/1) using a PowerGen 125 homogenizer (Fisher Scientific). The homogenates were centrifuged for 10 min at 5,000×g at 4 °C. Hydrophilic metabolites were lyophilized to remove water for NMR experiments. […]

[1] = HFD mice, 1H-NMR liver metabolomics

Structure (SMILES): CCCCCc1cc(CCCCC)cc(CC(=O)[O-])c1.[Na+] [PBI-4547, 2-[3,5-dipentylphenyl]acetate sodium salt]
- liver collagen deposition (BDL rat): significantly decreased
- HOMA-IR index (HFD-fed WT mice; HFD mice, 10 mg/kg daily): decreased by PBI-4547 to the STD group level
- degree of hepatic inflammation (histology) (HFD-fed WT mice; HFD mice, 10 mg/kg daily): remained unchanged
- disposition index (HFD-fed WT mice; HFD mice, 10 mg/kg daily): remained unchanged
- fasting insulin levels (HFD-fed WT mice; HFD mice, 10 mg/kg daily): lowered
- hepatic ballooning (histology) (HFD-fed WT mice; HFD mice, 10 mg/kg daily): markedly reduced
- hepatic steatosis (histology) (HFD-fed WT mice; HFD mice, 10 mg/kg daily): markedly reduced
- liver total cholesterol (HFD-fed WT mice; HFD mice, 10 mg/kg daily): without affecting
- liver triglyceride levels (HFD-fed WT mice; HFD mice, 10 mg/kg daily): reduced
- oral glucose tolerance test (OGTT) (HFD-fed WT mice; HFD mice, 10 mg/kg daily): better glycemic control
- overall NAFLD score (HFD-fed WT mice; HFD mice, 10 mg/kg daily): significantly improving
- serum adiponectin levels (HFD-fed WT mice; HFD mice, 10 mg/kg daily): enhancing
- serum triglycerides (HFD-fed WT mice; HFD mice, 10 mg/kg daily): decreased
- organ weight (HFD-fed WT mice; HFD mice, 10 mg/kg daily by gavage): without affecting
- bodyweight (HFD-fed WT mice; HFD mice, 10 mg/kg daily by gavage, 5 weeks after beginning of treatment): significant reduction
- fasting blood glucose (HFD-fed WT mice; HFD mice, 10 mg/kg daily, after 6 weeks of treatment): decreased
- hepatic dysregulation of key amino acids and citric acid cycle intermediates (metabolomics) (HFD-fed WT mice; [1]): corrected
- hepatic energy metabolism intermediates (metabolomics) (HFD-fed WT mice; [1]): restored back to normal levels
- maximum diameter or average size of adipocytes (HFD-fed WT mice; HFD mice, WAT morphometric analysis): did not affect
- WAT expression of Pgc1a and Ucp1 (HFD-fed WT mice; HFD mice, WAT qRT-PCR): induced
- WAT expression of resistin and glucose transporters Slc2a2, Slc2a4 (HFD-fed WT mice; HFD mice, WAT qRT-PCR): increased
- WAT expression of vaspin (Serpina12) (HFD-fed WT mice; HFD mice, WAT qRT-PCR): completely abolished
- WAT mRNA of pro-fibrotic (Cola1, Ctgf, Mmp2, Timp1) and pro-inflammatory (Il6, Ccl2) genes (HFD-fed WT mice; HFD mice, WAT qRT-PCR): downregulated
- NAD+ in liver (HFD-fed WT mice; HFD mice, liver metabolomics): restored high levels
- hepatic Ucp2 and Ucp3 expression (HFD-fed WT mice; HFD mice, qRT-PCR): highly upregulated
- hepatic expression of FA metabolism genes Acox1, Cpt1b, Pdk4, Hadha, Cd36 (HFD-fed WT mice; HFD mice, qRT-PCR): strong upregulation
- hepatic expression of glucose metabolism genes Pklr, G6pc, Slc2a2 (HFD-fed WT mice; HFD mice, qRT-PCR): normalized
- liver Adipor2 expression (HFD-fed WT mice; HFD mice, qRT-PCR): downregulated
- liver Ctgf mRNA levels (HFD-fed WT mice; HFD mice, qRT-PCR): significantly decreased
- liver Mmp2 mRNA levels (HFD-fed WT mice; HFD mice, qRT-PCR): significantly decreased
- liver Retn (resistin) expression (HFD-fed WT mice; HFD mice, qRT-PCR): restored to normal levels
- liver Serpina12 (vaspin) expression (HFD-fed WT mice; HFD mice, qRT-PCR): downregulated
- liver pro-inflammatory genes (HFD-fed WT mice; HFD mice, qRT-PCR): not modulated
- WAT extent of interstitial fibrosis (HFD-fed WT mice; HFD mice, white adipose tissue): decreased
- WAT immune cell infiltration (HFD-fed WT mice; HFD mice, white adipose tissue): decreased
- serum total cholesterol (HFD-fed WT mice; HFD mice, after four weeks of treatment): returned to similar level as in the HFD group
- serum total cholesterol (HFD-fed WT mice; HFD mice, after two weeks of treatment): slightly increased
- HOMA-IR index (HFD-fed WT mice; WT vs KO study, HFD-fed WT): reduced
- WAT mean adipocyte diameters and area (HFD-fed WT mice; WT vs KO study, HFD-fed WT): remained unchanged
- fasting blood glucose levels (HFD-fed WT mice; WT vs KO study, HFD-fed WT): downregulated
- insulin levels (HFD-fed WT mice; WT vs KO study, HFD-fed WT): reduced
- liver glycogen levels (HFD-fed WT mice; WT vs KO study, HFD-fed WT): increased
- serum adiponectin (HFD-fed WT mice; WT vs KO study, HFD-fed WT): upregulated
- serum cholesterol levels (HFD-fed WT mice; WT vs KO study, HFD-fed WT): remained unchanged
- serum triglyceride levels (HFD-fed WT mice; WT vs KO study, HFD-fed WT): lowered
- α-SMA positive liver staining (immunofluorescence) (HFD-fed WT mice; WT vs KO study, HFD-fed WT): dramatic drop
- bodyweight (HFD-fed WT mice; WT vs KO study, HFD-fed WT, 10 mg/kg daily, 8 weeks): decreased
- OGTT (HFD-fed WT mice; WT vs KO study, HFD-fed WT, after 6 weeks): significant effect
- AMPK phosphorylation levels in the liver (HFD-fed WT mice; data not shown): promote
